Experimental data: ChEMBL document CHEMBL1148587, “Imidazo[1,2-a]pyrimidines as functionally selective and orally bioavailable GABA(A)alpha2/alpha3 binding site agonists for the treatment of anxiety disorders” (J Med Chem, 2006)
Calls of active or inactive are those of the source. The rule behind the calls is not given here.

Assays:
[1] = molecular target: T1, GABA-A receptor; alpha-1/beta-3/gamma-2 (Homo sapiens, UniProt P14867+P18507+P28472); test: Displacement of [3H]-Ro15-1788 from human recombinant GABAA alpha1 in combination with beta-3-gamma-2 expressed in L(tk-) cells; type: cell-based
T1 sequence (P14867 whole entry): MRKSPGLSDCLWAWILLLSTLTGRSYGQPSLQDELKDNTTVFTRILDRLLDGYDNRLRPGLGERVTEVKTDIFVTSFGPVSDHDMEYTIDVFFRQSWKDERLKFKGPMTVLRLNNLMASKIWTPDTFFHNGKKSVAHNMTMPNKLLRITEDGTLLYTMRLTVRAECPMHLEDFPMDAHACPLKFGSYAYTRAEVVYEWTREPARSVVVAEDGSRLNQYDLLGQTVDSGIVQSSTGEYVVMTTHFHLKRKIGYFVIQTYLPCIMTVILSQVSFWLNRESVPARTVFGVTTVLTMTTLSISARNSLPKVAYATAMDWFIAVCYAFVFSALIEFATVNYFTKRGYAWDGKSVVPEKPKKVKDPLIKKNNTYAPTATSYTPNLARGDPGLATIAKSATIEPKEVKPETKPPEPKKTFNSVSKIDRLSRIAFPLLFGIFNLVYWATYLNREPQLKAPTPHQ
T1 sequence (P18507 whole entry): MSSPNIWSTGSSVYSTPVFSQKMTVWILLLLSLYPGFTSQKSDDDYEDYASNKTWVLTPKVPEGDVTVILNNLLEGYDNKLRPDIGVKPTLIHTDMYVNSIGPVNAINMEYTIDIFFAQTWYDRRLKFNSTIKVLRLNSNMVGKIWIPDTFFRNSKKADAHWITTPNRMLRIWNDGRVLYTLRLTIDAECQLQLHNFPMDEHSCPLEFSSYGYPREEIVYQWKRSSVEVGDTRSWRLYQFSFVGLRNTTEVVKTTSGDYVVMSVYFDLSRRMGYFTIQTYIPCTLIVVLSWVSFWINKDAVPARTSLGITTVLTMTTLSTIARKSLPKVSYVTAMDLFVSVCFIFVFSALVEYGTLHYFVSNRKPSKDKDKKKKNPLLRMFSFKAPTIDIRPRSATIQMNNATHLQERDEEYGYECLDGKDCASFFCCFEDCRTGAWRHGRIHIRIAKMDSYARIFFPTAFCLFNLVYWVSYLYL
T1 sequence (P28472 whole entry): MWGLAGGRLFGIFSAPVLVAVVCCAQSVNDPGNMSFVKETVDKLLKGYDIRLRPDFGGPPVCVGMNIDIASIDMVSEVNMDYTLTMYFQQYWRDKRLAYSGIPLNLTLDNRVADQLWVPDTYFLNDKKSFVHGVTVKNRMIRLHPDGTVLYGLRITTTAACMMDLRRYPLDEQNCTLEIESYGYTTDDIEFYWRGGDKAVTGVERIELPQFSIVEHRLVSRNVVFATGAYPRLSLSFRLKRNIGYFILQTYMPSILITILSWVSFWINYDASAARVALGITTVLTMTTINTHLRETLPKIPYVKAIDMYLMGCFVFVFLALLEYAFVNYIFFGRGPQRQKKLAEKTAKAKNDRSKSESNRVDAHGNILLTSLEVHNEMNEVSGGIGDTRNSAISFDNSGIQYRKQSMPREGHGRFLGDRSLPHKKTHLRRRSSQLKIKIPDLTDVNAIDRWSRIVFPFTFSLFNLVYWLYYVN

[2] = molecular target: T2, GABA-A receptor; alpha-3/beta-3/gamma-2 (Homo sapiens, UniProt P18507+P28472+P34903); test: Displacement of [3H]Ro-151788 from human recombinant GABAA alpha3 in combination with beta3gamma2 expressed in L(tk-) cells; type: cell-based
T2 sequence (P18507 whole entry): T1 sequence (P18507 whole entry)
T2 sequence (P28472 whole entry): T1 sequence (P28472 whole entry)
T2 sequence (P34903 whole entry): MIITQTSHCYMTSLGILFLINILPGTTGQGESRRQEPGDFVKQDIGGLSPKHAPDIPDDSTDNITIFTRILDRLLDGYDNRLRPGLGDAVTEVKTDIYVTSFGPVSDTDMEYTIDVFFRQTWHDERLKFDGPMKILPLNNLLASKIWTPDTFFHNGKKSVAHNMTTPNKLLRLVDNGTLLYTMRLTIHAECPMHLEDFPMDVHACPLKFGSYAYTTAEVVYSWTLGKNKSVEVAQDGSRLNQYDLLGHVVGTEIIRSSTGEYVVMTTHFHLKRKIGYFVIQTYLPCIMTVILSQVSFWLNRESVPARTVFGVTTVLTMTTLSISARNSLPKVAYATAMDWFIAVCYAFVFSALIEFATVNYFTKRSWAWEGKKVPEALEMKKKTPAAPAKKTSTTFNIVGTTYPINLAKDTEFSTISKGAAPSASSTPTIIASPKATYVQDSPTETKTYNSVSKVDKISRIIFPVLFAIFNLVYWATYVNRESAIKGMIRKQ

[3] = molecular target: T3, GABA-A receptor; alpha-5/beta-3/gamma-2 (Homo sapiens, UniProt P18507+P28472+P31644); test: Displacement of [3H]Ro-151788 from human recombinant GABAA alpha5 in combination with beta3gamma2 expressed in L(tk-) cells; type: cell-based
T3 sequence (P18507 whole entry): T1 sequence (P18507 whole entry)
T3 sequence (P28472 whole entry): T1 sequence (P28472 whole entry)
T3 sequence (P31644 whole entry): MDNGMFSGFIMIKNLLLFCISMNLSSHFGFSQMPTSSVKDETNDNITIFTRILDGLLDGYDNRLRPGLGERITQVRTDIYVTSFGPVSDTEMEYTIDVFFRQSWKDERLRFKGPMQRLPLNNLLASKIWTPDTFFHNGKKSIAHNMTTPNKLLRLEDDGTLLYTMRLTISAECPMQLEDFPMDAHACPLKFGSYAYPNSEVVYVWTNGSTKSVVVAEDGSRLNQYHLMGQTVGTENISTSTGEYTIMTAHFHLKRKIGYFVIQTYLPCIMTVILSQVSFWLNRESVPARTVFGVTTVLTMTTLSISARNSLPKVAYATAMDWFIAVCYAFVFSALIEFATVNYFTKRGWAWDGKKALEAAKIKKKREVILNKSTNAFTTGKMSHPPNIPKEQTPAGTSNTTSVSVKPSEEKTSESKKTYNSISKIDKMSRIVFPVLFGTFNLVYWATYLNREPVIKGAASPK

[4] = molecular target: T4, GABA-A receptor; alpha-1/beta-3/gamma-2 (Homo sapiens) (UniProt P14867+P18507+P28472); test: Efficacy against human recombinant GABAA alpha-1 in combination with beta3gamma2 expressed in L(tk-) cells by whole cell patch clamp method; type: functional, cell-based
[5] = molecular target: T5, GABA-A receptor; alpha-3/beta-3/gamma-2 (Homo sapiens) (UniProt P18507+P28472+P34903); test: Efficacy against human recombinant GABAA alpha3 in combination with beta-3-gamma-2 expressed in L(tk-) cells by whole cell patch clamp method; type: functional, cell-based
[6] = molecular target: T5, GABA-A receptor; alpha-3/beta-3/gamma-2 (Homo sapiens); test: Efficacy against human recombinant GABAA alpha3 in combination with beta-3-gamma-2 expressed in L(tk-) cells by 36Cl ion flux modulation; type: functional, cell-based
[7] = molecular target: T6, GABA-A receptor; alpha-2/beta-3/gamma-2 (Homo sapiens, UniProt P18507+P28472+P47869); test: Displacement of [3H]-Ro15-1788 from human recombinant GABAA alpha2 in combination with beta3gamma2 expressed in L(tk-) cells; type: cell-based
T6 sequence (P18507 whole entry): T1 sequence (P18507 whole entry)
T6 sequence (P28472 whole entry): T1 sequence (P28472 whole entry)
T6 sequence (P47869 whole entry): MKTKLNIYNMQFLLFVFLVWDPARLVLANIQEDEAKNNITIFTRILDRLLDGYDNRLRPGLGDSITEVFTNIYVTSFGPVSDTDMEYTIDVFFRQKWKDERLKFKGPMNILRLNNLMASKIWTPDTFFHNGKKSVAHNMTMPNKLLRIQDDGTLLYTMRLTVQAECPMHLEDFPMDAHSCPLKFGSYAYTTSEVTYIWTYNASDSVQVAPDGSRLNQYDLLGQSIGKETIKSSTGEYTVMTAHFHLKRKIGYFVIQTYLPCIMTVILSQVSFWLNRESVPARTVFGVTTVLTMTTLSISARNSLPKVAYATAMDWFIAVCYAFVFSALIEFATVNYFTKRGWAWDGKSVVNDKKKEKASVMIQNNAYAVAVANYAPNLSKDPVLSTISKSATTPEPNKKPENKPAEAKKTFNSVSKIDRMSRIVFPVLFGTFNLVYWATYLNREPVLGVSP

[8] = molecular target: T4, GABA-A receptor; alpha-1/beta-3/gamma-2 (Homo sapiens); test: Efficacy against human recombinant GABAA alpha1 in combination with beta3gamma2 expressed in L(tk-) cells by 36Cl ion flux modulation; type: functional, cell-based
Rattus norvegicus = test: Activity in rat elevated plus maze assay at 5 mg/kg, ip; type: functional, organism-based; design: dose 5 mg/kg
[9] = Oral bioavailability in rat; type: ADME, organism-based; conditions: in vivo
[10] = Plasma clearance in rat; type: ADME, organism-based
[11] = Oral bioavailability in dog; type: ADME, organism-based, Canis lupus familiaris; conditions: in vivo
[12] = Plasma clearance in dog; type: ADME, organism-based, Canis lupus familiaris
[13] = molecular target: GABA-A receptor; alpha-5/beta-3/gamma-2 (Homo sapiens) (UniProt P18507+P28472+P31644); test: Efficacy against human recombinant GABAA alpha5 in combination with beta3gamma2 expressed in L(tk-) cells by whole cell patch clamp method; type: functional, cell-based

| Compound | Ki [1] [nM] | Ki [2] [nM] | Ki [3] [nM] | Efficacy [4] [%] | Efficacy [5] [%] | Efficacy [6] [%] | Ki [7] [nM] | Efficacy [8] [%] | Activity (Rattus norvegicus) | bioavailability [9] [%] | clearance [10] [mL/min/kg] | bioavailability [11] [%] | clearance [12] [mL/min/kg] | Efficacy [13] [%] |
| --- | --- | --- | --- | --- | --- | --- | --- | --- | --- | --- | --- | --- | --- | --- |
| N#Cc1cccc(F)c1-c1cc(-c2cnc3nc(C(F)(F)F)ccn23)ccc1F | 0.87 | 0.38 | 0.5 | 8 | 33 |  |  |  |  |  |  |  |  |  |
| CC(C)(O)c1ccn2c(-c3ccc(F)c(-c4ccc(F)cc4C#N)c3)cnc2n1 | 2.7 | 1.3 | 0.1 |  |  | 45 | 3.3 | 45 |  |  |  |  |  |  |
| CCn1ncnc1COc1nn2c(-c3ccccc3F)nnc2cc1C(C)(C)C [MK-0777] | 0.26 | 0.3 | 0.2 |  |  |  | 0.3 |  |  |  |  |  |  |  |
| c1ccc(-c2nnc3c4c(c(OCc5ccccn5)nn23)C2CCC4CC2)cc1 | 56 | 10 | 1 | 32 | 45.6 |  | 21.7 |  |  |  |  |  |  |  |
| CNC1=Nc2ccc(Cl)cc2C(c2ccccc2)=[N+]([O-])C1 |  |  |  |  |  |  |  |  | Active |  |  |  |  |  |
| Cc1ccn2c(-c3cccc(-c4ccccc4C#N)c3)cnc2n1 | 0.39 | 0.37 | 0.12 | 7 | 81 |  | 0.78 |  |  | 42 | 13 | < 5 | 41 | 1 |
| N#Cc1ccccc1-c1cc(F)cc(-c2cnc3nc(C(F)(F)F)ccn23)c1 | 5.3 | 14 | 1.6 |  |  | 18 |  | 4 |  |  |  |  |  |  |
| N#Cc1c(F)cccc1-c1cc(-c2cnc3nc(C(F)(F)F)ccn23)ccc1F | 4.6 | 7.6 | 2.8 |  |  | 56 |  | 31 |  |  |  |  |  |  |
| Cn1ncnc1COc1nn2c(-c3cc(F)ccc3F)nnc2cc1C(C)(C)C | 0.8 | 0.7 | 2.3 | 2 | 43 |  | 0.7 |  |  |  |  |  |  | 39 |
| N#Cc1ccccc1-c1cc(-c2cnc3nc(C(F)(F)F)ccn23)ccc1F | 0.5 | 0.34 | 0.2 | 12.4 | 43 |  | 0.52 |  |  |  |  |  |  | 14 |
| CCO/N=C(\C)c1ccc2c(c1)ncn2-c1cccc(-c2cccnc2)c1 | 1.5 | 9.2 | 1.6 | 42 | 127 |  | 13.1 |  |  |  |  |  |  | 26 |
| Cn1cnc(COc2nn3c(-c4ccccc4)nnc3c3c2C2CCC3CC2)n1 |  |  |  | 34 | 55 |  |  |  |  |  |  |  |  |  |
| Cc1ccn2c(-c3cccc(-c4cccnc4)c3)cnc2c1 |  | 16 |  |  |  | 9 |  | -15 |  |  |  |  |  |  |
| Cc1ccn2c(-c3cccc(-c4ccccc4C#N)c3)cnc2c1 | 4.5 | 3.6 | 1.2 | -10 | 57 |  |  |  |  | 2 | 44 |  |  | -14.6 |
| N#Cc1ccccc1-c1cccc(-c2cnc3nc(C(F)(F)F)ccn23)c1 | 0.66 | 0.33 | 0.21 | 20 | 69 |  |  |  |  |  |  |  |  |  |
| N#Cc1ccc(F)cc1-c1cc(-c2cnc3nc(C(F)(F)F)ccn23)ccc1F | 0.65 | 0.62 | 0.26 | 34 |  |  |  |  |  |  |  |  |  |  |
| N#Cc1ccccc1-c1cccc(-c2cnc3nc(C(F)(F)F)ccn23)c1F | 2.7 | 2.6 | 0.94 | 2 | 43 |  |  |  |  |  |  |  |  | 18 |
